Laboratory results taken from patent US9663548B2, “10-α/β-D-arabinofuranosyl-undecenes as potential anti-mycobacterial agents and process for the preparation thereof” (priority 2011, dated 2017).
Converted amounts (≈) assume the structure as drawn.

Test system: Mycobacterium bovis BCG
Assay: microbe, parasite or virus in culture
Format: cell-based
Conditions: for IC50: M. bovis BCG growth, 8 days incubation; for inhibition at 1 µg/mL: read-out: % Inhibition of growth of Mycobacterium Bovis BCG, at 1 μg/ml concentration
[1] = Mycobacterium tuberculosis variant bovis BCG, BCG, 192 h
[2] = Mycobacterium tuberculosis variant bovis BCG, BCG

Compound	MIC90 [1] [µg/mL]	IC50 [1] [µg/mL]	inhibition at 1 µg/mL [2] [%]	other results
C=CCCCCCCCCC[C@H]1O[C@H](CO)[C@@H](O)[C@@H]1O [Compound 2]	1.6 (≈ 5.59 µM)	0.19 (≈ 0.663 µM)	85	IC50 (listed as α-C-glycoside): 0.2 µg/mL (≈ 0.698 µM)
C=CCCCCCCCCCO [Compound 10-undecenol, 10-undecenol, reference compound]				inhibition of M. bovis BCG (control experiment with aglycon) (FIG. 1d, doses 0.1 to 100 μg/ml): poor inhibitor
C=CCCCCCCCCCC1OC(CO)C(O)C1O (stereo not drawn) [Compound 1]	15 (≈ 52.4 µM)	1.1 (≈ 3.84 µM)	48	
CO[C@H]1/C=C/O[C@@]2(C)Oc3c(C)c(O)c4c(O)c(c(/C=N/N5CCN(C)CC5)c(O)c4c3C2=O)NC(=O)/C(C)=C\C=C\[C@H](C)[C@H](O)[C@@H](C)[C@@H](O)[C@@H](C)[C@H](OC(C)=O)[C@@H]1C [Rifampicin, rifampicin, reference compound]		0.02 (≈ 0.0243 µM)		inhibition at 0.2 µg/mL (Mycobacterium tuberculosis variant bovis BCG, BCG, read-out: % Inhibition of growth of Mycobacterium Bovis BCG, at 0.2 μg/ml): 99%
CC[C@@H](CO)NCCN[C@@H](CC)CO [Ethambutol, ethambutol, reference compound]	2.9 (≈ 14.2 µM)	0.2 (≈ 0.979 µM)	85	
C=CCCCCCCCCCC1OC(COC2OC(CO)C(O)C2O)C(O)C1O (stereo not drawn) [Compound 4]				IC50: 19 µg/mL (≈ 45.4 µM); % Inhibition of growth of Mycobacterium Bovis BCG (at 1 μg/ml concentration): 28%
